Measurements as given in ChEMBL document CHEMBL3769343, “Spiromastilactones: A new class of influenza virus inhibitors from deep-sea fungus” (Eur J Med Chem, 2016).
The source made the active and inactive calls. No cut-off for these calls is given here.

Key:
[1] = Binding affinity to Influenza A virus H3N2 HA3 protein by surface plasmon resonance assay
[2] = test system: Influenza A virus (A/WSN/1933(H1N1)); assay: Binding affinity to Influenza A virus A/WSN/33 (H1N1) HA1 protein assessed as decrease in protein affinity to sialic acid receptor at 20 uM by surface plasmon resonance assay
[3] = test system: Influenza A virus (A/WSN/1933(H1N1)); assay: Binding affinity to Influenza A virus A/WSN/33 (H1N1) HA1 protein assessed as decrease in protein affinity to sialic acid receptor at 1.25 uM by surface plasmon resonance assay
[4] = test system: Influenza A virus; assay: Antiviral activity against Influenza A virus A/WSN/33 (H1N1) infected in human A549 cells assessed as inhibition of (-)vRNA production after 7 hrs by qRT-PCR analysis; assay type: functional, organism-based; details: A/WSN/1933(H1N1)
[5] = test system: Influenza A virus; assay: Antiviral activity against Influenza A virus A/WSN/33 (H1N1) infected in human A549 cells assessed as inhibition of (+)cRNA production after 7 hrs by qRT-PCR analysis; assay type: functional, organism-based; details: A/WSN/1933(H1N1)
[6] = test system: Influenza A virus (A/WSN/1933(H1N1)); assay: Binding affinity to Influenza A virus A/WSN/33 (H1N1) HA1 protein assessed as decrease in protein affinity to sialic acid receptor at 10 uM by surface plasmon resonance assay
[7] = test system: Influenza A virus; assay: Antiviral activity against Influenza A virus A/WSN/33 (H1N1) infected in dog MDCK cells assessed as reduction in nucleoprotein level at 100 uM measured at 8 to 10 hrs by Western blot analysis relative to control; assay type: functional, organism-based; details: A/WSN/1933(H1N1)
[8] = test system: Influenza A virus (A/WSN/1933(H1N1)); assay: Binding affinity to Influenza A virus A/WSN/33 (H1N1) HA1 protein assessed as decrease in protein affinity to sialic acid receptor at 0.625 uM by surface plasmon resonance assay
[9] = test system: Influenza A virus (A/WSN/1933(H1N1)); assay: Binding affinity to Influenza A virus A/WSN/33 (H1N1) HA1 protein assessed as decrease in protein affinity to sialic acid receptor at 5 uM by surface plasmon resonance assay
[10] = Binding affinity to influenza B virus HA1 protein by surface plasmon resonance assay
[11] = test system: Influenza A virus; assay: Antiviral activity against Influenza A virus A/WSN/33 (H1N1) assessed as inhibition of viral infection in dog MDCK cells at 50 uM pretreated with virus for 30 mins followed by host cell inoculation for 1 hr measured after 36 hrs; assay type: functional; details: A/WSN/1933(H1N1)
[12] = test system: Influenza A virus; assay: Antiviral activity against Influenza A virus A/WSN/1933 (H1N1) infected in MDCK cells assessed as protection against virus induced cytopathic effect after 40 hrs by Celltiter-Glo assay; assay type: functional, organism-based
[13] = test system: Influenza A virus; assay: Antiviral activity against Influenza A virus A/WSN/33 (H1N1) infected in human A549 cells assessed as inhibition of mRNA of M1 segment production after 7 hrs by qRT-PCR analysis; assay type: functional, organism-based; details: A/WSN/1933(H1N1)
[14] = test system: Influenza A virus (A/WSN/1933(H1N1)); assay: (§1) Binding affinity to Influenza A virus A/WSN/33 (H1N1) HA1 protein by surface plasmon resonance assay
[15] = test system: Influenza B virus; assay: Antiviral activity against influenza B virus B/SZ/155 infected in dog MDCK cells assessed as inhibition of virus induced cytopathic effect after 40 hrs by Cell-Titer-Glo assay; assay type: functional, organism-based; details: B/SZ/155, MDCK
[16] = test system: A549; assay: Binding affinity to Influenza A virus A/WSN/33 (H1N1) HA1 protein assessed as inhibition of virus attachment to human A549 cells at 10 to 50 uM after 1 hr by DAPI staining based immunofluorescence microscopic analysis; assay type: cell-based; details: Influenza A virus (A/WSN/1933(H1N1))
[17] = test system: Influenza A virus (A/WSN/1933(H1N1)); assay: Binding affinity to Influenza A virus A/WSN/33 (H1N1) HA1 protein assessed as decrease in protein affinity to sialic acid receptor at 2.5 uM by surface plasmon resonance assay
[18] = test system: Influenza A virus; assay: Antiviral activity against Influenza A virus A/WSN/33 (H1N1) assessed as inhibition of viral infection in dog MDCK cells at 50 uM after 36 hrs; assay type: functional; details: A/WSN/1933(H1N1)
[19] = test system: Influenza A virus; assay: Antiviral activity against Influenza A virus A/WSN/33 (H1N1) assessed as inhibition of viral infection in dog MDCK cells at 50 uM pretreated with cells for 30 mins followed by exposure to virus for 1 hr measured after 36 hrs; assay type: functional; details: A/WSN/1933(H1N1)
[20] = test system: Influenza A virus; assay: Antiviral activity against Influenza A virus A/WSN/33 (H1N1) infected in dog MDCK cells assessed as inhibition of viral nucleoprotein synthesis after 6 hrs by DAPI staining based immunofluorescence microscopy; assay type: functional, organism-based; details: A/WSN/1933(H1N1)
[21] = test system: Influenza A virus (A/WSN/1933(H1N1)); assay: Inhibition of Influenza A virus A/WSN/33 (H1N1) HA1 protein assessed as inhibition of virus induced aggregation of chicken erythrocytes after 30 mins
[22] = test system: Influenza A virus; assay: Antiviral activity against Influenza A virus A/WSN/33 (H1N1) infected in dog MDCK cells assessed as reduction in nucleoprotein level at 100 uM measured over 10 hrs by Western blot analysis relative to control; assay type: functional, organism-based; details: A/WSN/1933(H1N1)
[23] = Binding affinity to Influenza A virus A/WSN/33 (H1N1) HA1 protein assessed as decrease in protein affinity to sialic acid receptor by measuring dissociation constant by surface plasmon resonance assay (reference value: 0.001473/Ms); set-up: species or system Influenza A virus (A/WSN/1933(H1N1))
[24] = Cytotoxicity against MDCK cells after 40 hrs by Celltiter-Glo assay; assay type: cell-based, Canis lupus familiaris; details: dog
[25] = test system: HEK-293T; assay: Inhibition of Influenza A virus RNP infected in HEK293T cells assessed as decrease in ratio of Fluc to Rluc; assay type: cell-based; details: Influenza A virus (A/WSN/1933(H1N1))
[26] = test system: HeLa; assay: Binding affinity to Influenza A virus A/WSN/33 (H1N1) HA2 protein assessed as polykaryon formation in human HeLa cells preincubated with test compound for 15 mins followed by further test compound addition at pH 4.9 for 15 mins by crystal violet staining-based microscopic analysis; assay type: cell-based; details: Influenza A virus (A/WSN/1933(H1N1))
[27] = test system: HEK-293T; assay: Effect on renilla luciferase expressed in HEK293T cells at 6.25 to 50 uM after 48 hrs; assay type: cell-based
[28] = test system: Influenza A virus (A/WSN/1933(H1N1)); assay: Binding affinity to Influenza A virus A/WSN/33 (H1N1) HA1 protein assessed as decrease in protein affinity to sialic acid receptor at 40 uM by surface plasmon resonance assay relative to control
[29] = test system: Influenza A virus; assay: Antiviral activity against Influenza A virus A/WSN/33 (H1N1) infected in dog MDCK cells assessed as reduction in nucleoprotein level at 100 uM measured at 5 to 8 hrs by Western blot analysis relative to control; assay type: functional, organism-based; details: A/WSN/1933(H1N1)
[30] = test system: Influenza A virus; assay: Antiviral activity against Influenza A virus A/WSN/33 (H1N1) infected in dog MDCK cells assessed as reduction in nucleoprotein level at 100 uM measured over 2 hrs by Western blot analysis relative to control; assay type: functional, organism-based; details: A/WSN/1933(H1N1)
[31] = Inhibition of Influenza A virus A/WSN/33 (H1N1) HA1 protein by surface plasmon resonance assay; set-up: species or system Influenza A virus (A/WSN/1933(H1N1))
[32] = test system: Influenza A virus; assay: Antiviral activity against Influenza A virus A/WSN/33 (H1N1) infected in dog MDCK cells assessed as reduction in nucleoprotein level at 100 uM measured at 2 to 5 hrs by Western blot analysis relative to control; assay type: functional, organism-based; details: A/WSN/1933(H1N1)
[33] = Binding affinity to Influenza A virus A/WSN/33 (H1N1) HA1 protein assessed as decrease in protein affinity to sialic acid receptor by surface plasmon resonance assay (reference value: 70 nM); set-up: species or system Influenza A virus (A/WSN/1933(H1N1))
[34] = test system: Influenza A virus (A/WSN/1933(H1N1)); assay: Binding affinity to Influenza A virus A/WSN/33 (H1N1) HA1 protein assessed as decrease in protein affinity to sialic acid receptor by measuring association constant by surface plasmon resonance assay (reference value: 20810/s)
[35] = as §1; set-up: species or system Influenza A virus (A/WSN/1933(H1N1))

With `CCCc1c(Cl)c(O)cc(OC)c1Oc1c(Cl)c(O)c(Cl)c2c1C(=O)O[C@@H]2CC` the Kd [1] was 18 µM, the Activity [2] was 98.2 RU and the Activity [3] was 5.4 RU. The inhibition [4] was “Dose-dependent effect”, the inhibition [5] was “Dose-dependent effect” and the Activity [6] was 44.8 RU. The Activity [7] was “inactive”, the Activity [8] was 3.3 RU and the Activity [9] was 21 RU. For the same compound, the Kd [10] was 14 µM, the inhibition at 50 µM [11] was 40% and the IC50 [12] was 6 µM. The inhibition [13] was “Dose-dependent effect”, the Ka [14] was 2.3 ×10⁴ /Ms and the EC50 [15] was 32 µM. The inhibition [16] was “Active”, the Activity [17] was 10.3 RU and the inhibition at 50 µM [18] was 90%. For the same compound, the inhibition at 50 µM [19] was 25%, the inhibition [20] was “Dose-dependent effect” and the inhibition [21] was “Dose-dependent effect”. The Activity [22] was “Active”, the Kd [23] was 0.00187 M⁻¹ s⁻¹ and the CC50 at 40 h [24] was over 100 µM. The inhibition [25] was “Active”, the Activity [26] was “inactive” and the Activity [27] was “inactive”. The fold change (FC) [28] was 8, the Activity [29] was “Active” and the Activity [30] was “Active”. For the same compound, the IC50 [31] was 6 µM, the Activity [32] was “Active” and the Kd [33] was 0.547 µM. For the same compound, the Ka [34] was 3420 s⁻¹.
For `CCCc1c(Cl)c(O)cc(O)c1Oc1c(Cl)c(O)c(Cl)c2c1C(=O)O[C@@H]2CC`, the IC50 [12] was 27.6 µM and the CC50 at 40 h [24] was over 50 µM.
For `CCCc1c(Cl)c(O)c(Cl)c(O)c1Oc1c(Cl)c(O)c(Cl)c2c1C(=O)O[C@@H]2CC`, the IC50 [12] was 38.2 µM and the CC50 at 40 h [24] was over 50 µM.
`CCCc1cc(O)cc(O)c1Oc1c(Cl)c(O)c(Cl)c2c1C(=O)O[C@@H]2CC` gave an IC50 [12] of over 100 µM and a CC50 at 40 h [24] of over 100 µM.
Compound `NC(=O)c1ncn([C@@H]2O[C@H](CO)[C@@H](O)[C@H]2O)n1` [RIBAVIRIN] has an EC50 [15] of 4.28 µM and a CC50 at 40 h [24] of over 200 µM.
In the case of `CCCc1cc(O)cc(O)c1C(=O)O`, the IC50 [12] is reported as over 100 µM and the CC50 at 40 h [24] is reported as over 100 µM.
With `CC[C@H]1OC(=O)c2c(O)c(Cl)c(O)c(Cl)c21` the IC50 [12] was over 100 µM and the CC50 at 40 h [24] was over 100 µM.
For `CCCc1cc(O)c(Cl)c(OC)c1Oc1c(Cl)c(O)c(Cl)c2c1C(=O)O[C@@H]2CC`, the IC50 [12] was 11.4 µM, the Kd [35] was 55 µM and the Ka [14] was 0.77 ×10⁴ /Ms. It also gave a CC50 at 40 h [24] of over 100 µM and an IC50 [31] of 11.4 µM.
`CCCc1c(Cl)c(OC)cc(O)c1Oc1c(Cl)c(O)c(Cl)c2c1C(=O)O[C@@H]2CC` gave an IC50 [12] of over 50 µM and a CC50 at 40 h [24] of over 50 µM.
Work on `CCCc1c(Cl)c(O)c(Cl)c(OC)c1Oc1c(Cl)c(O)c(Cl)c2c1C(=O)O[C@@H]2CC` yielded an IC50 [12] of 22.6 µM and a CC50 at 40 h [24] of over 100 µM.
